Assay results from patent US20100298141A1, “SUBSTITUTED PYRIDINE N-OXIDE HERBICIDES” (E. I. DU PONT DE NEMOURS AND COMPANY, priority 2007, published 2010).

What was measured:
velvetleaf [1] = assay: Test A pre-/postemergence greenhouse test; type: in vivo, Abutilon theophrasti; details: for Plant response rating, Velvetleaf: 0 to 100 scale where 0 is no effect and 100 is complete control; for Velvetleaf plant response rating: 0 to 100 scale
Method in brief: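 Two application timings were run side by side in the greenhouse. Before emergence, compound went onto the soil surface of loam–sand pots as a directed spray; after emergence, plants at 2–10 cm and the one- to two-leaf stage were treated. Visual injury versus controls was rated at approximately day ten.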

blackgrass = assay: Test C pre-/postemergence test; type: in vivo, Alopecurus myosuroides
Method in brief: (§1)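 Seeds were planted and treated preemergence with test chemical in a non-phytotoxic solvent mixture containing surfactant. Postemergence applications of the same formulation went onto plants 2 to 18 cm tall (1- to 4-leaf stage). A dash marks no test result.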

downy brome = assay: Test C pre-/postemergence test; type: in vivo, Bromus tectorum
Method in brief: as §1

green foxtail = assay: Test C pre-/postemergence test; type: in vivo, Setaria viridis
Method in brief: as §1

Italian ryegrass = assay: Test C pre-/postemergence test; type: in vivo, Lolium multiflorum
Method in brief: as §1

wild oat = assay: Test C pre-/postemergence test; type: in vivo, Avena fatua
Method in brief: as §1

cocklebur = assay: Test C pre-/postemergence test; type: in vivo, Xanthium strumarium
Method in brief: as §1

corn = assay: Test C pre-/postemergence test; type: in vivo, Zea mays
Method in brief: as §1

woolly cupgrass = assay: Test C pre-/postemergence test; type: in vivo, Eriochloa villosa
Method in brief: as §1

giant foxtail = assay: Test C pre-/postemergence test; type: in vivo, Setaria faberii
Method in brief: as §1

johnsongrass = assay: Test C pre-/postemergence test; type: in vivo, Sorghum halepense
Method in brief: as §1

morningglory = assay: Test C pre-/postemergence test; type: in vivo, Ipomoea coccinea
Method in brief: as §1

soybean = assay: Test C pre-/postemergence test; type: in vivo, Glycine max
Method in brief: as §1

velvetleaf [2] = assay: Test C pre-/postemergence test; type: in vivo, Abutilon theophrasti
Method in brief: as §1

duck salad = assay: Test C flooded paddy test; type: in vivo, Heteranthera limosa; details: Flood
Method in brief: (§2)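 In-water treatment: compound dosed into 3 cm flood over soil, water level unchanged throughout. Controls run alongside; visual assessment at day 13–15.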

barnyardgrass = assay: Test C flooded paddy test; type: in vivo, Echinochloa crus-galli; details: Flood
Method in brief: as §2

[3] = Postemergence, 500 g ai/ha, 0 is no effect, 100 is complete control
[4] = Preemergence, 125 g ai/ha, 0 no effect, 100 complete control
[5] = 62 g ai/ha, Preemergence, scale 0 to 100
[6] = 125 g ai/ha, preemergence, scale 0 (no effect) to 100 (complete control)
[7] = Postemergence, 125 g ai/ha, scale 0 to 100, 0 no effect, 100 complete control
[8] = Postemergence, 250 g ai/ha, scale 0 to 100, 0 no effect, 100 complete control
[9] = Preemergence, 31 g ai/ha, scale 0 to 100 (0 no effect, 100 complete control)
[10] = preemergence, 250 g ai/ha, scale 0 (no effect) to 100 (complete control)
[11] = 62 g ai/ha, scale 0 to 100 (0 no effect, 100 complete control)
[12] = 250 g ai/ha, scale 0 to 100, 0 no effect, 100 complete control, 13 to 15 days

Cn1nc(C(F)(F)C(F)(F)F)c(C[S+]([O-])c2cccc[n+]2[O-])c1OCC(F)(F)F (centres unmarked) [Compound 79]
40: Plant response rating (0 to 100), Ryegrass, Italian (Italian ryegrass; Postemergence, 62 g ai/ha) | Plant response rating, Ryegrass, Italian (Italian ryegrass; [9]) | Plant response rating, Oat, Wild (wild oat; [7]) | Plant response rating, Cupgrass, Woolly (woolly cupgrass; [7])
20: Plant response rating, Bromegrass, Downy (downy brome; [7]) | Plant response rating (0 to 100), Johnsongrass (johnsongrass; Postemergence, 62 g ai/ha)
50: Bromegrass, Downy plant response rating (downy brome; [5]) | Plant response rating, Bromegrass, Downy (downy brome; [9]) | Plant response rating, Oat, Wild (wild oat; [8]) | Cocklebur plant response rating (cocklebur; [6]) | Cocklebur plant response rating (cocklebur; [10]) | Cupgrass, Woolly plant response rating (woolly cupgrass; [5]) | Plant response rating, Cupgrass, Woolly (woolly cupgrass; [8]) | Plant response rating, Foxtail, Giant (giant foxtail; [7]) | Plant response rating, Johnsongrass (johnsongrass; [8]) | Plant response rating (0 to 100), Soybean (soybean; Postemergence, 31 g ai/ha) | Plant response rating, Velvetleaf (velvetleaf [2]; [7])
65: Plant response rating, Foxtail, Green (green foxtail; [9])
95: Johnsongrass plant response rating (johnsongrass; [5]) | Johnsongrass plant response rating (johnsongrass; [6]) | Johnsongrass plant response rating (johnsongrass; [10])
70: Plant response rating (0 to 100), Blackgrass (blackgrass; Postemergence, 31 g ai/ha) | Plant response rating, Foxtail, Green (green foxtail; [7]) | Oat, Wild plant response rating (wild oat; [5]) | Plant response rating, Oat, Wild (wild oat; [9]) | Foxtail, Giant plant response rating (giant foxtail; [5]) | Plant response rating, Foxtail, Giant (giant foxtail; [8]) | Plant response rating, Foxtail, Giant (giant foxtail; [9]) | Plant response rating, Velvetleaf (velvetleaf [2]; [8]) | Plant response rating, Barnyardgrass (barnyardgrass; [12])
80: Velvetleaf plant response rating (velvetleaf [1]; [3]) | Velvetleaf plant response rating (velvetleaf [1]; [4]) | Plant response rating (0 to 100), Blackgrass (blackgrass; Postemergence, 62 g ai/ha) | Foxtail, Giant plant response rating (giant foxtail; [6]) | Plant response rating, Johnsongrass (johnsongrass; [9]) | Soybean plant response rating (soybean; [10])
0: Plant response rating (0 to 100), Bromegrass, Downy (downy brome; Postemergence, 31 g ai/ha) | Plant response rating (0 to 100), Bromegrass, Downy (downy brome; Postemergence, 62 g ai/ha) | Plant response rating (0 to 100), Foxtail, Green (green foxtail; Postemergence, 31 g ai/ha) | Plant response rating (0 to 100), Ryegrass, Italian (Italian ryegrass; Postemergence, 31 g ai/ha) | Plant response rating (0 to 100), Oat, Wild (wild oat; Postemergence, 31 g ai/ha) | Cocklebur plant response rating (cocklebur; [5]) | Plant response rating (0 to 100), Cocklebur (cocklebur; Postemergence, 31 g ai/ha) | Plant response rating (0 to 100), Cocklebur (cocklebur; Postemergence, 62 g ai/ha) | Plant response rating, Cocklebur (cocklebur; [7]) | Plant response rating, Cocklebur (cocklebur; [8]) | Plant response rating, Cocklebur (cocklebur; [9]) | Plant response rating (0 to 100), Corn (corn; Postemergence, 31 g ai/ha) | Plant response rating (0 to 100), Cupgrass, Woolly (woolly cupgrass; Postemergence, 31 g ai/ha) | Plant response rating (0 to 100), Cupgrass, Woolly (woolly cupgrass; Postemergence, 62 g ai/ha) | Plant response rating, Cupgrass, Woolly (woolly cupgrass; [9]) | Plant response rating (0 to 100), Foxtail, Giant (giant foxtail; Postemergence, 31 g ai/ha) | Plant response rating (0 to 100), Foxtail, Giant (giant foxtail; Postemergence, 62 g ai/ha) | Plant response rating (0 to 100), Johnsongrass (johnsongrass; Postemergence, 31 g ai/ha) | Plant response rating (0 to 100), Morningglory (morningglory; Postemergence, 31 g ai/ha) | Plant response rating (0 to 100), Morningglory (morningglory; Postemergence, 62 g ai/ha) | Plant response rating, Morningglory (morningglory; [7]) | Plant response rating, Morningglory (morningglory; [8]) | Plant response rating (0 to 100), Velvetleaf (velvetleaf [2]; Postemergence, 31 g ai/ha) | Plant response rating (0 to 100), Velvetleaf (velvetleaf [2]; Postemergence, 62 g ai/ha) | Plant response rating, Barnyardgrass (barnyardgrass; [11])
98: Plant response rating, Blackgrass (blackgrass; [9]) | Cupgrass, Woolly plant response rating (woolly cupgrass; [6])
55: Plant response rating (0 to 100), Soybean (soybean; Postemergence, 62 g ai/ha)
90: Plant response rating, Blackgrass (blackgrass; [7]) | Plant response rating, Blackgrass (blackgrass; [8]) | Oat, Wild plant response rating (wild oat; [10]) | Plant response rating, Ducksalad (duck salad; [11])
100: Plant response rating, Velvetleaf (velvetleaf [1]; Preemergence, 500 g ai/ha) | Blackgrass plant response rating (blackgrass; [5]) | Blackgrass plant response rating (blackgrass; [6]) | Blackgrass plant response rating (blackgrass; [10]) | Bromegrass, Downy plant response rating (downy brome; [6]) | Bromegrass, Downy plant response rating (downy brome; [10]) | Foxtail, Green plant response rating (green foxtail; [6]) | Foxtail, Green plant response rating (green foxtail; [10]) | Ryegrass, Italian plant response rating (Italian ryegrass; [6]) | Plant response rating, Ryegrass, Italian (Italian ryegrass; [8]) | Ryegrass, Italian plant response rating (Italian ryegrass; [10]) | Corn plant response rating (corn; [5]) | Corn plant response rating (corn; [6]) | Corn plant response rating (corn; [10]) | Cupgrass, Woolly plant response rating (woolly cupgrass; [10]) | Foxtail, Giant plant response rating (giant foxtail; [10]) | Morningglory plant response rating (morningglory; [5]) | Morningglory plant response rating (morningglory; [6]) | Morningglory plant response rating (morningglory; [10]) | Velvetleaf plant response rating (velvetleaf [2]; [5]) | Velvetleaf plant response rating (velvetleaf [2]; [6]) | Plant response rating, Velvetleaf (velvetleaf [2]; [9]) | Velvetleaf plant response rating (velvetleaf [2]; [10]) | Plant response rating, Ducksalad (duck salad; [12])
85: Foxtail, Green plant response rating (green foxtail; [5]) | Plant response rating, Foxtail, Green (green foxtail; [8]) | Oat, Wild plant response rating (wild oat; [6])
25: Plant response rating (0 to 100), Corn (corn; Postemergence, 62 g ai/ha) | Plant response rating, Johnsongrass (johnsongrass; [7])
35: Plant response rating (0 to 100), Oat, Wild (wild oat; Postemergence, 62 g ai/ha)
60: Plant response rating, Velvetleaf (velvetleaf [1]; Postemergence, 125 g ai/ha) | Plant response rating, Bromegrass, Downy (downy brome; [8]) | Plant response rating (0 to 100), Foxtail, Green (green foxtail; Postemergence, 62 g ai/ha) | Ryegrass, Italian plant response rating (Italian ryegrass; [5]) | Plant response rating, Ryegrass, Italian (Italian ryegrass; [7]) | Plant response rating, Corn (corn; [7]) | Plant response rating, Corn (corn; [8]) | Plant response rating, Corn (corn; [9]) | Plant response rating, Morningglory (morningglory; [9]) | Soybean plant response rating (soybean; [5]) | Plant response rating, Soybean (soybean; [7]) | Plant response rating, Soybean (soybean; [9])

Cn1nc(C(F)(F)F)c(CS(=O)(=O)c2cccc[n+]2[O-])c1OCC(F)F [Compound 81]
95: Oat, Wild plant response rating (wild oat; [6]) | Oat, Wild plant response rating (wild oat; [10]) | Johnsongrass plant response rating (johnsongrass; [5]) | Plant response rating, Johnsongrass (johnsongrass; [9])
40: Bromegrass, Downy plant response rating (downy brome; [5]) | Plant response rating, Bromegrass, Downy (downy brome; [9])
45: Velvetleaf plant response rating (velvetleaf [2]; [5])
20: Corn plant response rating (corn; [5])
85: Plant response rating, Cupgrass, Woolly (woolly cupgrass; [9]) | Morningglory plant response rating (morningglory; [6]) | Morningglory plant response rating (morningglory; [10]) | Velvetleaf plant response rating (velvetleaf [2]; [10])
80: Plant response rating, Foxtail, Giant (giant foxtail; [9])
10: Plant response rating, Velvetleaf (velvetleaf [1]; Postemergence, 125 g ai/ha) | Velvetleaf plant response rating (velvetleaf [1]; [4])
70: Velvetleaf plant response rating (velvetleaf [1]; [3]) | Velvetleaf plant response rating (velvetleaf [2]; [6])
60: Oat, Wild plant response rating (wild oat; [5]) | Cocklebur plant response rating (cocklebur; [10])
98: Foxtail, Giant plant response rating (giant foxtail; [5])
65: Plant response rating, Foxtail, Green (green foxtail; [9]) | Plant response rating, Ducksalad (duck salad; [11])
75: Foxtail, Green plant response rating (green foxtail; [5]) | Plant response rating, Ducksalad (duck salad; [12])
0: Ryegrass, Italian plant response rating (Italian ryegrass; [5]) | Plant response rating, Ryegrass, Italian (Italian ryegrass; [9]) | Plant response rating, Oat, Wild (wild oat; [9]) | Cocklebur plant response rating (cocklebur; [5]) | Plant response rating, Cocklebur (cocklebur; [9]) | Plant response rating, Corn (corn; [9]) | Morningglory plant response rating (morningglory; [5]) | Plant response rating, Morningglory (morningglory; [9]) | Soybean plant response rating (soybean; [5]) | Plant response rating, Soybean (soybean; [9]) | Plant response rating, Velvetleaf (velvetleaf [2]; [9]) | Plant response rating, Barnyardgrass (barnyardgrass; [11]) | Plant response rating, Barnyardgrass (barnyardgrass; [12])
100: Plant response rating, Velvetleaf (velvetleaf [1]; Preemergence, 500 g ai/ha) | Bromegrass, Downy plant response rating (downy brome; [6]) | Bromegrass, Downy plant response rating (downy brome; [10]) | Foxtail, Green plant response rating (green foxtail; [6]) | Foxtail, Green plant response rating (green foxtail; [10]) | Ryegrass, Italian plant response rating (Italian ryegrass; [10]) | Corn plant response rating (corn; [6]) | Corn plant response rating (corn; [10]) | Cupgrass, Woolly plant response rating (woolly cupgrass; [5]) | Cupgrass, Woolly plant response rating (woolly cupgrass; [6]) | Cupgrass, Woolly plant response rating (woolly cupgrass; [10]) | Foxtail, Giant plant response rating (giant foxtail; [6]) | Foxtail, Giant plant response rating (giant foxtail; [10]) | Johnsongrass plant response rating (johnsongrass; [6]) | Johnsongrass plant response rating (johnsongrass; [10]) | Soybean plant response rating (soybean; [6]) | Soybean plant response rating (soybean; [10])
50: Plant response rating, Blackgrass (blackgrass; [9]) | Ryegrass, Italian plant response rating (Italian ryegrass; [6]) | Cocklebur plant response rating (cocklebur; [6])
